Reference: paper PMC9689682, “Tenebrio molitor Proteins-Derived DPP-4 Inhibitory Peptides: Preparation, Identification, and Molecular Binding Mechanism” (Foods, 2022)

Columns and labels:
[1] = target: T1, DPP-4 (Homo sapiens, UniProt P27487); assay: DPP-4 inhibition activity assay (Gly-Pro-p-nitroanilide substrate, OD 405 nm); assay type: biochemical; conditions: final concentration 1 mg/mL; n = 3; Figure 4A
T1 construct: purchased Millipore Sigma (Burlington, MA, USA)
Experimental: The inhibition of each sample on DPP-4 was assayed according to a previously described method. Briefly, 20 μL of each sample solution, 50 μL of Tris-HCl buffer (pH8.0, 100 mM), and 100 μL of substrate were mixed in a well of a 96-well plate, then incubated at 37 °C for 10 min. Afterward, the 30 μL of DPP-IV solution was added, then placed at 37 °C for 40 min incubation. Afterward, the optical density was recorded at 405 nm using a BioTek Synergy H1 microplate reader (BioTek, Winooski, VT, USA). The inhibitory effect of the samples on DPP-4 was calculated according to a previously described equation [27].

[2] = target: T1, DPP-4; conditions: Bombyx mori protein-derived peptide; cited from earlier work
Source text: GLP-1 and GIP are two crucial incretins, which have mainly contributed to the insulin response after meal intake. Suppressing the activity of DPP-4 can increase the level of active incretins, thereby decreasing blood glucose in diabetic patients. Based on the consideration of the adverse effects caused by the chemically synthesized inhibitors, some peptides with inhibitory effects on DPP-4 activity obtained from natural proteins, including milk, egg, grain, edible insects, and aquatic proteins have been widely reported. In the current study, the flavourzyme effectivel ... || It has been reported that the length and size of peptides influence their inhibitory activity against DPP-4.

T1 sequence (P27487 whole entry): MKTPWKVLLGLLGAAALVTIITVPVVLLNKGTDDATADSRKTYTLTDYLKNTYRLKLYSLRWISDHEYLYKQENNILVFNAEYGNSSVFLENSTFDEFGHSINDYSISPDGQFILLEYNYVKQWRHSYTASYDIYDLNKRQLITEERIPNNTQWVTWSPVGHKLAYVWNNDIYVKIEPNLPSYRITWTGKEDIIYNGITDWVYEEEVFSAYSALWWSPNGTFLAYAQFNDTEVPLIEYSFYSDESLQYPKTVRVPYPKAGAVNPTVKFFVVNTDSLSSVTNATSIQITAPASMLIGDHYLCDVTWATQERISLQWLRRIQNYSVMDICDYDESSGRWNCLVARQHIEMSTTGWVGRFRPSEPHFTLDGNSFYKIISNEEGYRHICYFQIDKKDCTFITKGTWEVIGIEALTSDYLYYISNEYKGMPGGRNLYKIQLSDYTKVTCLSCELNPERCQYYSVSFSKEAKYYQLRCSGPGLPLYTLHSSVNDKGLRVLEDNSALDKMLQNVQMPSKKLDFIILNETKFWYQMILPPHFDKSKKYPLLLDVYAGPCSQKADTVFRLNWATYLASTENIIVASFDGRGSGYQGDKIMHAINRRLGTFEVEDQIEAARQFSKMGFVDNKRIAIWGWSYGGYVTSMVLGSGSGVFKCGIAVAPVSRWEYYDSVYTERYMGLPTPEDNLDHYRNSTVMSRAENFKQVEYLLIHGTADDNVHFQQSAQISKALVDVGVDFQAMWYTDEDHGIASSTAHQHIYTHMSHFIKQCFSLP

inhibitory effect of the synthesized peptides on DPP-4 activity (in words) [1] | Substance | IC50 value against DPP-4 [2]
weak inhibitory activity | SNGLPFPTRP [synthesized peptide identified from T. molitor flavourzyme hydrolysate; origin Hexamerin 1] | 
 | LPAVTIR | 0.148 mg/mL
weak inhibitory activity | GLQFPTRPNF [synthesized peptide; origin 86 kDa early-staged encapsulation inducing protein] | 
weak inhibitory activity | NEAYFGFPR [synthesized peptide identified from T. molitor flavourzyme hydrolysate; origin Hexamerin 1] | 
